# Data taken from patent publication US20250230193A1, “CYCLIC COMPOUND HAVING SELECTIVE KRAS INHIBITORY EFFECT ON HRAS AND NRAS” (CHUGAI SEIYAKU KABUSHIKI KAISHA, priority 2022, published 2025).
# *1 amine or outer side, *2 acyl side, *3 side chain or, on linkers, in order; H or OH if unused. Where a SMILES comes first, the peptide text is derived from it. Bridges are numbered along the chain shown (N, C = ends). [ ]: non-standard residue; d: D form. The star is where a group is joined. hPhe(3,5-F2-4-CF3) = N[C@@H](CCc1cc(F)c(C(F)(F)F)c(F)c1)C(=O)O; hPhe(3-Cl-4-CF3) = N[C@@H](CCc1ccc(C(F)(F)F)c(Cl)c1)C(=O)O; NPrPhe(4-CF3) = CCCN[C@@H](Cc1ccc(C(F)(F)F)cc1)C(=O)O; NMeGly(cPent) = CN[C@H](C(=O)O)C1CCCC1; X9 = C[C@@](N[*:1])(C(=O)[*:2])C1CC1; NMeD = CN[C@@H](CC(=O)O)C(=O)O; NMeL = CN[C@@H](CC(C)C)C(=O)O; Morpholide = C1CN(*)CCO1; Ac5c = NC1(C(=O)O)CCCC1; NEtG = CCNCC(=O)O; Sar = CNCC(=O)O
# What was measured:
# [1] = biological target: GDP-bound NRAS wild-type protein (Homo sapiens, UniProt P01111); test: Binding to NRAS by surface plasmon resonance (SPR), Single Cycle Kinetics
# Sequence of GDP-bound NRAS wild-type protein (P01111 whole entry): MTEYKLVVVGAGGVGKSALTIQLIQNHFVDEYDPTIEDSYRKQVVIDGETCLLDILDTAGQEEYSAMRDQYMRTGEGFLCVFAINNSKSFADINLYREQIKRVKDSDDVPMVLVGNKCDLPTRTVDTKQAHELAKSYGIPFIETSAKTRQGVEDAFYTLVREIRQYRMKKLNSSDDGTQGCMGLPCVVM
# [2] = biological target: GDP-bound HRAS wild-type protein (Homo sapiens, UniProt P01112); test: Binding to HRAS by surface plasmon resonance (SPR), Single Cycle Kinetics
# Sequence of GDP-bound HRAS wild-type protein (P01112 whole entry): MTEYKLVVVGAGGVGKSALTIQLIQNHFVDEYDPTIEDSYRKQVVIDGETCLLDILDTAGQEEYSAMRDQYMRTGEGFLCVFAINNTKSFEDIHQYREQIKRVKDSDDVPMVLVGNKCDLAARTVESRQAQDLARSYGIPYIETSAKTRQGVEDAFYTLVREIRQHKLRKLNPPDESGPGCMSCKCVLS
# [3] = KD ratio, GDP-bound NRAS wild-type vs GDP-bound KRAS wild-type, SPR
# [4] = KD ratio, GDP-bound HRAS wild-type vs GDP-bound KRAS wild-type, SPR
smiles,measurement,setting,value
"CCCN1C(=O)CN(C)C(=O)CN(C)C(=O)[C@H]([C@@H](C)CC)NC(=O)[C@H](CC(C)C)N(C)C(=O)C[C@@H](C(=O)N(C)C)N(C)C(=O)[C@H](C2CCCC2)N(C)C(=O)[C@](C)(C2CC2)NC(=O)[C@@H]2CCCN2C(=O)[C@H](CCc2cc(F)c(C(F)(F)F)c(F)c2)NC(=O)CN(C)C(=O)[C@@H]1Cc1ccc(C(F)(F)F)cc1 [PP0734] ([NMeL]I[Sar][Sar][NPrPhe(4-CF3)][Sar][hPhe(3,5-F2-4-CF3)]P[X9][NMeGly(cPent)][NMeD]-NMe2; lactam N-11)",NRAS/KRAS (ratio of KD value with respect to GDP-bound NRAS wild-type protein to KD value with respect to KRAS),"[1]; KD ratio NRAS/KRAS, SPR",B (a compound having 3 or more and less than 10 is denoted as B)
same,HRAS/KRAS (ratio of KD value with respect to GDP-bound HRAS wild-type protein to KD value with respect to KRAS),"[2]; KD ratio HRAS/KRAS, SPR",C (A compound having a KD ratio of 0.1 or more and less than 3 is denoted as C)
CCCC[C@H]1C(=O)N[C@@H]([C@@H](C)CC)C(=O)N(C)CC(=O)N(C)[C@H]2C/C=C\CCN(C2=O)[C@@H](Cc2ccc(C(F)(F)F)cc2)C(=O)N(C)CC(=O)N[C@@H](CCc2ccc(C(F)(F)F)c(OC)c2)C(=O)N2C[C@H](OCC)C[C@H]2C(=O)NC2(CCC2)C(=O)N(C)[C@@H](C2CCCC2)C(=O)N(C)[C@H](C(=O)N(C)CC)CC(=O)N1C [PP2840],NRAS/KRAS (ratio of KD value with respect to GDP-bound NRAS wild-type protein to KD value with respect to KRAS),"[1]; KD ratio NRAS/KRAS, class symbols",A (a compound having 10 or more and less than 20 is denoted as A)
same,HRAS/KRAS (ratio of KD value with respect to GDP-bound HRAS wild-type protein to KD value with respect to KRAS),"[2]; KD ratio HRAS/KRAS, class symbols",A (a compound having 10 or more and less than 20 is denoted as A)
CCO[C@@H]1C[C@H]2C(=O)NC3(CC(C)(C)C3)C(=O)N(C)[C@@H](C(CC)CC)C(=O)N(C)[C@H](C(=O)N(C)C)CC(=O)N(C)[C@@H](C)C(=O)N[C@@H]([C@@H](C)CC)C(=O)N(C)CC(=O)N(C)[C@H]3C/C=C\CCN(C3=O)[C@@H](Cc3ccc(C)cc3)C(=O)N(C)CC(=O)N[C@@H](CCc3ccc(Cl)c(Cl)c3)C(=O)N2C1 [PP2186],NRAS/KRAS (ratio of KD value with respect to NRAS to KD value with respect to KRAS),"[1]; SPR, GDP-bound NRAS wild-type vs GDP-bound KRAS wild-type",AA (a compound having 20 or more is denoted as AA)
same,HRAS/KRAS (ratio of KD value with respect to HRAS to KD value with respect to KRAS),"[2]; SPR, GDP-bound HRAS wild-type vs GDP-bound KRAS wild-type",A (a compound having 10 or more and less than 20 is denoted as A)
CCO[C@@H]1C[C@H]2C(=O)NC3(CCC3)C(=O)N(C)[C@@H](C3CCCC3)C(=O)N(C)[C@H](C(=O)N(C)C)CC(=O)N(C)[C@@H](CCOC)C(=O)N[C@@H]([C@@H](C)CC)C(=O)N(C)CC(=O)N(C)[C@H]3CCCCCN(C3=O)[C@@H](Cc3ccc(F)cc3)C(=O)N(C)CC(=O)N[C@@H](CCc3cc(F)c(C(F)(F)F)c(F)c3)C(=O)N2C1 [PP1194],NRAS/KRAS (ratio of KD value with respect to NRAS to KD value with respect to KRAS),[1]; [3],B (a compound having 3 or more and less than 10 is denoted as B)
same,HRAS/KRAS (ratio of KD value with respect to HRAS to KD value with respect to KRAS),[2]; [4],B (a compound having 3 or more and less than 10 is denoted as B)
CCCN1C(=O)CN(C)C(=O)CN(C)C(=O)[C@H]([C@@H](C)CC)NC(=O)[C@H](CC(C)C)N(C)C(=O)C[C@@H](C(=O)N2CCOCC2)N(C)C(=O)[C@H](C2CCCC2)N(C)C(=O)C2(CCCC2)NC(=O)CN(CC)C(=O)[C@H](CCc2ccc(C(F)(F)F)c(Cl)c2)NC(=O)CN(C)C(=O)[C@@H]1Cc1ccc(C(F)(F)F)cc1 [PP0144] ([NMeL]I[Sar][Sar][NPrPhe(4-CF3)][Sar][hPhe(3-Cl-4-CF3)][NEtG][Ac5c][NMeGly(cPent)][NMeD]-Morpholide; lactam N-11),NRAS/KRAS (ratio of KD for GDP-bound NRAS wild-type to KD for KRAS),"[1]; KD ratio NRAS/KRAS, SPR",B (a compound having 3 or more and less than 10 is denoted as B)
same,HRAS/KRAS (ratio of KD for GDP-bound HRAS wild-type to KD for KRAS),"[2]; KD ratio HRAS/KRAS, SPR",C (A compound having a KD ratio of 0.1 or more and less than 3 is denoted as C)
CCO[C@@H]1C[C@H]2C(=O)NC3(CCC3)C(=O)N(C)[C@@H](C3CCCC3)C(=O)N(C)[C@H](C(=O)N3CCOCC3)CC(=O)N(C)[C@@H](CC(C)C)C(=O)N[C@@H]([C@@H](C)CC)C(=O)N3CC[C@H]3C(=O)N(C)[C@H]3CC(C)=CCN(C3=O)[C@@H](Cc3ccc(C(F)(F)F)cc3)C(=O)N(C)CC(=O)N[C@@H](CCc3cc(F)c(C(F)(F)F)c(F)c3)C(=O)N2C1 [PP1040],NRAS/KRAS (ratio of KD value with respect to NRAS to KD value with respect to KRAS),[1]; [3],C (A compound having a KD ratio of 0.1 or more and less than 3 is denoted as C)
same,HRAS/KRAS (ratio of KD value with respect to HRAS to KD value with respect to KRAS),[2]; [4],C (A compound having a KD ratio of 0.1 or more and less than 3 is denoted as C)
CC[C@H](C)[C@@H]1NC(=O)[C@H](C2CC2)N(C)C(=O)C[C@@H](C(=O)N(C)CC)N(C)C(=O)[C@H](C2CCCC2)N(C)C(=O)C2(CC(C)(C)C2)NC(=O)[C@@H]2C[C@H](C)CN2C(=O)[C@H](CCc2ccc(C(F)(F)F)c(OC)c2)NC(=O)CN(C)C(=O)[C@H](Cc2ccc(C(F)(F)F)cc2)N2CC/C=C\C[C@@H](C2=O)N(C)C(=O)CN(C)C1=O [PP2007],NRAS/KRAS (ratio of KD value for NRAS to KD value for KRAS),[1]; [3],AA (a compound having 20 or more is denoted as AA)
same,HRAS/KRAS (ratio of KD value for HRAS to KD value for KRAS),[2]; [4],B (a compound having 3 or more and less than 10 is denoted as B)
